{"source": "PubChem BioAssay AID1963982", "about": "(Molecular Pharmacology Branch, DTP, NCI, 2024)", "test_system": "313798-341-R-J2-PDC spheroids, viability", "assay": "Anticancer human tumor 313798-341-R-J2-PDC patient-derived cervical squamous cell carcinoma cell line growth inhibition [PI3K]", "details": "spheroids with HUVEC and MSC; for viability, T/C: stronger effect = lower value", "how_it_was_run": "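Tumor cells grown as multi-cell spheroids with HUVEC endothelial cells and MSC fibroblast-like stroma were treated with targeted agents combined with inavolisib, alpelisib, duvelisib or copanlisib. Doses fell in half-log steps from near clinical Cmax, else from 10 microM. Viability was measured.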", "key": {"[1]": {"details": "curve of first compound, second compound 0.0316 µM"}, "[2]": {"details": "curve of first compound, second compound 0.1 µM"}, "[3]": {"details": "curve of first compound, second compound 0.316 µM"}, "[4]": {"details": "curve of first compound, second compound 1 µM"}}, "note": "Values joined by “and” are separate entries in the source; they are usually repeats but may differ in a detail not shown here. Equal values may be shown once.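 Note: spheroids exposed to compounds for seven days.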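 Throughout, for viability, T/C: 100% = DMSO vehicle control viability.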"}
{"smiles": "Cn1cnc2c(F)c(Nc3ccc(Br)cc3Cl)c(C(=O)NOCCO)cc21", "note": "+ CC(Nc1ccc2c(c1)OCCn1cc(N3C(=O)OCC3C(F)F)nc1-2)C(N)=O", "values": [{"measurement": "IC50", "setting": "curve of first compound, second compound 0.00316 µM", "result": 1200, "unit": "nM"}, {"measurement": "IC50", "setting": "curve of first compound, second compound 0.01 µM", "result": 841, "unit": "nM"}, {"measurement": "IC50", "setting": "[1]", "result": 547, "unit": "nM"}, {"measurement": "IC50", "setting": "[2]", "result": 265, "unit": "nM"}, {"measurement": "IC50", "setting": "[3]", "result": 26.1, "unit": "nM"}, {"measurement": "IC50", "setting": "[4]", "result": "< 9.49", "unit": "nM"}, {"measurement": "viability, T/C", "setting": "second compound 0.00316 µM, first compound 0.00949 µM", "result": 87.2, "unit": "%"}, {"measurement": "viability, T/C", "setting": "second compound 0.00316 µM, first compound 0.03 µM", "result": 107, "unit": "%"}, {"measurement": "viability, T/C", "setting": "second compound 0.00316 µM, first compound 0.0949 µM", "result": 97.8, "unit": "%"}, {"measurement": "viability, T/C", "setting": "second compound 0.00316 µM, first compound 0.3 µM", "result": 81.5, "unit": "%"}, {"measurement": "viability, T/C", "setting": "second compound 0.00316 µM, first compound 0.949 µM", "result": 57.9, "unit": "%"}, {"measurement": "viability, T/C", "setting": "second compound 0.00316 µM, first compound 3 µM", "result": 23.4, "unit": "%"}, {"measurement": "viability, T/C", "setting": "second compound 0.01 µM, first compound 0.00949 µM", "result": 95.6, "unit": "%"}, {"measurement": "viability, T/C", "setting": "second compound 0.01 µM, first compound 0.03 µM", "result": 103, "unit": "%"}, {"measurement": "viability, T/C", "setting": "second compound 0.01 µM, first compound 0.0949 µM", "result": 96.1, "unit": "%"}, {"measurement": "viability, T/C", "setting": "second compound 0.01 µM, first compound 0.3 µM", "result": 84.2, "unit": "%"}, {"measurement": "viability, T/C", "setting": "second compound 0.01 µM, first compound 0.949 µM", "result": 46, "unit": "%"}, {"measurement": "viability, T/C", "setting": "second compound 0.01 µM, first compound 3 µM", "result": 20.8, "unit": "%"}, {"measurement": "viability, T/C", "setting": "second compound 0.0316 µM, first compound 0.00949 µM", "result": 97.6, "unit": "%"}, {"measurement": "viability, T/C", "setting": "second compound 0.0316 µM, first compound 0.03 µM", "result": 92.8, "unit": "%"}, {"measurement": "viability, T/C", "setting": "second compound 0.0316 µM, first compound 0.0949 µM", "result": 92.9, "unit": "%"}, {"measurement": "viability, T/C", "setting": "second compound 0.0316 µM, first compound 0.3 µM", "result": 60.8, "unit": "%"}, {"measurement": "viability, T/C", "setting": "second compound 0.0316 µM, first compound 0.949 µM", "result": 38.4, "unit": "%"}, {"measurement": "viability, T/C", "setting": "second compound 0.0316 µM, first compound 3 µM", "result": 11.8, "unit": "%"}, {"measurement": "viability, T/C", "setting": "second compound 0.1 µM, first compound 0.00949 µM", "result": 79.4, "unit": "%"}, {"measurement": "viability, T/C", "setting": "second compound 0.1 µM, first compound 0.03 µM", "result": 69.9, "unit": "%"}, {"measurement": "viability, T/C", "setting": "second compound 0.1 µM, first compound 0.0949 µM", "result": 66.2, "unit": "%"}, {"measurement": "viability, T/C", "setting": "second compound 0.1 µM, first compound 0.3 µM", "result": 46, "unit": "%"}, {"measurement": "viability, T/C", "setting": "second compound 0.1 µM, first compound 0.949 µM", "result": 29.9, "unit": "%"}, {"measurement": "viability, T/C", "setting": "second compound 0.1 µM, first compound 3 µM", "result": 4.42, "unit": "%"}, {"measurement": "viability, T/C", "setting": "second compound 0.316 µM, first compound 0.00949 µM", "result": 57.9, "unit": "%"}, {"measurement": "viability, T/C", "setting": "second compound 0.316 µM, first compound 0.03 µM", "result": 46.5, "unit": "%"}, {"measurement": "viability, T/C", "setting": "second compound 0.316 µM, first compound 0.0949 µM", "result": 41.3, "unit": "%"}, {"measurement": "viability, T/C", "setting": "second compound 0.316 µM, first compound 0.3 µM", "result": 28.8, "unit": "%"}, {"measurement": "viability, T/C", "setting": "second compound 0.316 µM, first compound 0.949 µM", "result": 16.7, "unit": "%"}, {"measurement": "viability, T/C", "setting": "second compound 0.316 µM, first compound 3 µM", "result": 2.27, "unit": "%"}, {"measurement": "viability, T/C", "setting": "second compound 1 µM, first compound 0.00949 µM", "result": 35.4, "unit": "%"}, {"measurement": "viability, T/C", "setting": "second compound 1 µM, first compound 0.03 µM", "result": 34.2, "unit": "%"}, {"measurement": "viability, T/C", "setting": "second compound 1 µM, first compound 0.0949 µM", "result": 30.1, "unit": "%"}, {"measurement": "viability, T/C", "setting": "second compound 1 µM, first compound 0.3 µM", "result": 19.6, "unit": "%"}, {"measurement": "viability, T/C", "setting": "second compound 1 µM, first compound 0.949 µM", "result": 9.79, "unit": "%"}, {"measurement": "viability, T/C", "setting": "second compound 1 µM, first compound 3 µM", "result": 1.11, "unit": "%"}]}
{"smiles": "C#Cc1c(F)ccc2cc(O)cc(-c3ncc4c(N5CC6CCC(C5)N6)nc(OCC56CCCN5CC(F)C6)nc4c3F)c12", "note": "(stereo unspecified) + CC(Nc1ncnc2nc[nH]c12)c1cc2cccc(Cl)c2c(=O)n1-c1ccccc1", "values": [{"measurement": "IC50", "setting": "[1]", "result": "> 10000", "unit": "nM"}, {"measurement": "IC50", "setting": "[2]", "result": "> 10000", "unit": "nM"}, {"measurement": "IC50", "setting": "[3]", "result": "> 10000", "unit": "nM"}, {"measurement": "IC50", "setting": "[4]", "result": "> 10000", "unit": "nM"}, {"measurement": "IC50", "setting": "curve of first compound, second compound 3.16 µM", "result": "> 10000", "unit": "nM"}, {"measurement": "IC50", "setting": "curve of first compound, second compound 10 µM", "result": "> 10000", "unit": "nM"}, {"measurement": "viability, T/C", "setting": "second compound 0.0316 µM, first compound 0.0316 µM", "result": 95.5, "unit": "%"}, {"measurement": "viability, T/C", "setting": "second compound 0.0316 µM, first compound 0.1 µM", "result": 95.7, "unit": "%"}, {"measurement": "viability, T/C", "setting": "second compound 0.0316 µM, first compound 0.316 µM", "result": 99, "unit": "%"}, {"measurement": "viability, T/C", "setting": "second compound 0.0316 µM, first compound 1 µM", "result": 101, "unit": "%"}, {"measurement": "viability, T/C", "setting": "second compound 0.0316 µM, first compound 3.16 µM", "result": 101, "unit": "%"}, {"measurement": "viability, T/C", "setting": "second compound 0.0316 µM, first compound 10 µM", "result": 96.9, "unit": "%"}, {"measurement": "viability, T/C", "setting": "second compound 0.1 µM, first compound 0.0316 µM", "result": 92.5, "unit": "%"}, {"measurement": "viability, T/C", "setting": "second compound 0.1 µM, first compound 0.1 µM", "result": 95.8, "unit": "%"}, {"measurement": "viability, T/C", "setting": "second compound 0.1 µM, first compound 0.316 µM", "result": 93.2, "unit": "%"}, {"measurement": "viability, T/C", "setting": "second compound 0.1 µM, first compound 1 µM", "result": 98.3, "unit": "%"}, {"measurement": "viability, T/C", "setting": "second compound 0.1 µM, first compound 3.16 µM", "result": 102, "unit": "%"}, {"measurement": "viability, T/C", "setting": "second compound 0.1 µM, first compound 10 µM", "result": 102, "unit": "%"}, {"measurement": "viability, T/C", "setting": "second compound 0.316 µM, first compound 0.0316 µM", "result": 95.3, "unit": "%"}, {"measurement": "viability, T/C", "setting": "second compound 0.316 µM, first compound 0.1 µM", "result": 104, "unit": "%"}, {"measurement": "viability, T/C", "setting": "second compound 0.316 µM, first compound 0.316 µM", "result": 90.9, "unit": "%"}, {"measurement": "viability, T/C", "setting": "second compound 0.316 µM, first compound 1 µM", "result": 93.9, "unit": "%"}, {"measurement": "viability, T/C", "setting": "second compound 0.316 µM, first compound 3.16 µM", "result": 99.1, "unit": "%"}, {"measurement": "viability, T/C", "setting": "second compound 0.316 µM, first compound 10 µM", "result": 100, "unit": "%"}, {"measurement": "viability, T/C", "setting": "second compound 1 µM, first compound 0.0316 µM", "result": 114, "unit": "%"}, {"measurement": "viability, T/C", "setting": "second compound 1 µM, first compound 0.1 µM", "result": 99.4, "unit": "%"}, {"measurement": "viability, T/C", "setting": "second compound 1 µM, first compound 0.316 µM", "result": 90.3, "unit": "%"}, {"measurement": "viability, T/C", "setting": "second compound 1 µM, first compound 1 µM", "result": 94.6, "unit": "%"}, {"measurement": "viability, T/C", "setting": "second compound 1 µM, first compound 3.16 µM", "result": 104, "unit": "%"}, {"measurement": "viability, T/C", "setting": "second compound 1 µM, first compound 10 µM", "result": 107, "unit": "%"}, {"measurement": "viability, T/C", "setting": "second compound 3.16 µM, first compound 0.0316 µM", "result": 110, "unit": "%"}, {"measurement": "viability, T/C", "setting": "second compound 3.16 µM, first compound 0.1 µM", "result": 97.2, "unit": "%"}, {"measurement": "viability, T/C", "setting": "second compound 3.16 µM, first compound 0.316 µM", "result": 94.3, "unit": "%"}, {"measurement": "viability, T/C", "setting": "second compound 3.16 µM, first compound 1 µM", "result": 101, "unit": "%"}, {"measurement": "viability, T/C", "setting": "second compound 3.16 µM, first compound 3.16 µM", "result": 90.4, "unit": "%"}, {"measurement": "viability, T/C", "setting": "second compound 3.16 µM, first compound 10 µM", "result": 99.9, "unit": "%"}, {"measurement": "viability, T/C", "setting": "second compound 10 µM, first compound 0.0316 µM", "result": 93.2, "unit": "%"}, {"measurement": "viability, T/C", "setting": "second compound 10 µM, first compound 0.1 µM", "result": 83.9, "unit": "%"}, {"measurement": "viability, T/C", "setting": "second compound 10 µM, first compound 0.316 µM", "result": 81, "unit": "%"}, {"measurement": "viability, T/C", "setting": "second compound 10 µM, first compound 1 µM", "result": 81.2, "unit": "%"}, {"measurement": "viability, T/C", "setting": "second compound 10 µM, first compound 3.16 µM", "result": 85.1, "unit": "%"}, {"measurement": "viability, T/C", "setting": "second compound 10 µM, first compound 10 µM", "result": 81.9, "unit": "%"}]}
{"smiles": "Cn1nccc1Nc1nccc(-c2ccn(C(CO)c3ccc(Cl)c(F)c3)c(=O)c2)n1", "note": "(stereo unspecified)", "values": [{"measurement": "viability, T/C", "setting": "compound 0.0316 µM", "result": "98.7% and 101% (2×) and 96.5%"}, {"measurement": "viability, T/C", "setting": "compound 0.1 µM", "result": "95.3% [middle of 4 runs]"}, {"measurement": "viability, T/C", "setting": "compound 0.316 µM", "result": "98.6% [middle of 4 runs]"}, {"measurement": "viability, T/C", "setting": "compound 1 µM", "result": "100% [middle of 4 runs]"}, {"measurement": "viability, T/C", "setting": "compound 3.16 µM", "result": "116% [middle of 4 runs]"}, {"measurement": "viability, T/C", "setting": "compound 10 µM", "result": "96.9% and 104% (2×) and 105%"}, {"measurement": "IC50", "setting": "curve of compound", "result": "> 10000", "unit": "nM"}]}
